“And” between values parts separate entries of the source, which are not always exact repeats. Identical values can stand only once. Inconclusive results and toxic doses are left out. Cut-off read from the data, not from the text of the source: active = T/C of 150% or more; inactive = T/C below 125%.
System: L1210 leukemia ip in BDF1 mice, survival T/C
Assay: NCI In Vivo Anticancer Drug Screen. Data for tumor model L1210 Leukemia (intraperitoneal) in B6D2F1 (BDF1) mice
Details: endpoint: mean survival time, higher = longer survival
In short: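 Mice bearing the transplanted tumor received compound or vehicle. Survival of the treated group was divided by that of the vehicle-treated control group to give the ratio.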

[1] = dose: 100.0 mg/kg/injection, schedule: Q01DX001 (ip), vehicle: saline
[2] = dose: 200.0 mg/kg/injection, schedule: Q01DX001 (ip), vehicle: saline
[3] = dose: 400.0 mg/kg/injection, schedule: Q01DX001 (ip), vehicle: saline
[4] = dose: 50.0 mg/kg/injection, schedule: Q04DX002 (ip), vehicle: Klucel (hydroxypropylcellulose) (HPC)
[5] = dose: 100.0 mg/kg/injection, schedule: Q04DX002 (ip), vehicle: Klucel (hydroxypropylcellulose) (HPC)
[6] = dose: 200.0 mg/kg/injection, schedule: Q04DX002 (ip), vehicle: Klucel (hydroxypropylcellulose) (HPC)
[7] = dose: 100.0 mg/kg/injection, schedule: Q04DX003 (ip), vehicle: saline
[8] = dose: 200.0 mg/kg/injection, schedule: Q04DX003 (ip), vehicle: saline
[9] = dose: 400.0 mg/kg/injection, schedule: Q04DX003 (ip), vehicle: saline
[10] = dose: 25.0 mg/kg/injection, schedule: Q01DX009 (ip), vehicle: saline
[11] = dose: 50.0 mg/kg/injection, schedule: Q01DX009 (ip), vehicle: saline
[12] = dose: 400.0 mg/kg/injection, schedule: Q04DX002 (ip), vehicle: Klucel (hydroxypropylcellulose) (HPC)
[13] = dose: 100.0 mg/kg/injection, schedule: Q01DX009 (ip), vehicle: Klucel (hydroxypropylcellulose) (HPC)
[14] = dose: 200.0 mg/kg/injection, schedule: Q01DX009 (ip), vehicle: Klucel (hydroxypropylcellulose) (HPC)
[15] = dose: 400.0 mg/kg/injection, schedule: Q01DX009 (ip), vehicle: Klucel (hydroxypropylcellulose) (HPC)
[16] = dose: 100.0 mg/kg/injection, schedule: Q04DX003 (ip), vehicle: saline with Tween-80
[17] = dose: 200.0 mg/kg/injection, schedule: Q04DX003 (ip), vehicle: saline with Tween-80
[18] = dose: 400.0 mg/kg/injection, schedule: Q04DX003 (ip), vehicle: saline with Tween-80
[19] = dose: 100.0 mg/kg/injection, schedule: Q01DX009 (ip), vehicle: saline with Tween-80
[20] = dose: 200.0 mg/kg/injection, schedule: Q01DX009 (ip), vehicle: saline with Tween-80
[21] = dose: 400.0 mg/kg/injection, schedule: Q01DX009 (ip), vehicle: saline with Tween-80

Measured: T/C

NNC(=O)c1ncn(C2OC(CO)C(O)C2O)c1C(=O)NN (configuration not stated)
inactive: dose: 50.0 mg/kg/injection, schedule: Q01DX001 (ip), vehicle: saline 102 % of control | [1] 98 % of control | [2] 102 % of control | [3] 98 % of control

CS(=O)(=O)OC1COC(c2ccccc2)OC1C1OC(c2ccccc2)OCC1OS(C)(=O)=O (configuration not stated)
inactive: [4] 98 % of control | [5] 98 % of control | [6] 109 % of control

C[N+]1(CCC[N+]2(C)CC3CCCCC3C2)CCOCC1 (configuration not stated)
inactive: [7] 99 % of control | [8] 96 % of control | [9] 105 % of control

Cc1cncn1CC(=O)c1ccccc1
inactive: [10] 104 % of control and 105 % of control | dose: 25.0 mg/kg/injection, schedule: Q04DX002 (ip), vehicle: saline 101 % of control and 105 % of control | [11] 103 % of control and 104 % of control | dose: 50.0 mg/kg/injection, schedule: Q04DX002 (ip), vehicle: saline 101 % of control and 108 % of control | [5] 93 % of control | dose: 100.0 mg/kg/injection, schedule: Q04DX002 (ip), vehicle: saline 103 % of control

CC(C)(C(=O)OCCOCCCl)c1cccc2ccccc12
inactive: dose: 100.0 mg/kg/injection, schedule: Q04DX002 (ip), vehicle: saline with Tween-80 113 % of control | dose: 200.0 mg/kg/injection, schedule: Q04DX002 (ip), vehicle: saline with Tween-80 111 % of control | dose: 400.0 mg/kg/injection, schedule: Q04DX002 (ip), vehicle: saline with Tween-80 95 % of control

CC1CC(C)(C)N=C(CC(C)(O)c2ccccn2)O1 (configuration not stated)
inactive: dose: 100.0 mg/kg/injection, schedule: Q01DX001 (ip), vehicle: saline sonified 97 % of control | dose: 200.0 mg/kg/injection, schedule: Q01DX001 (ip), vehicle: saline sonified 103 % of control | dose: 400.0 mg/kg/injection, schedule: Q01DX001 (ip), vehicle: saline sonified 100 % of control

Cc1cccc(NC(=O)C(Cl)(Cl)Cl)c1
inactive: [5] 109 % of control | [6] 98 % of control | [12] 98 % of control

Cc1ccc(S(=O)(=O)Nc2ccccc2N=Cc2ccc(N(CCCl)CCCl)cc2C)cc1
inactive: dose: 100.0 mg/kg/injection, schedule: Q01DX001 (ip), vehicle: carboxymethylcellulose (CMC) 101 % of control | dose: 200.0 mg/kg/injection, schedule: Q01DX001 (ip), vehicle: carboxymethylcellulose (CMC) 103 % of control | dose: 400.0 mg/kg/injection, schedule: Q01DX001 (ip), vehicle: carboxymethylcellulose (CMC) 86 % of control

COC(=O)c1ccc(OC(=O)Nc2ccc(F)c([N+](=O)[O-])c2)cc1
inactive: [13] 101 % of control | [14] 104 % of control

Cc1cnc(NC(N)=O)nc1-c1ccccc1O
inactive: [5] 95 % of control | [6] 91 % of control | [12] 87 % of control

NC(=O)CCc1cnc2ccccc2n1
inactive: [13] 89 % of control | dose: 100.0 mg/kg/injection, schedule: Q04DX003 (ip), vehicle: Klucel (hydroxypropylcellulose) (HPC) 106 % of control | [14] 95 % of control | dose: 200.0 mg/kg/injection, schedule: Q04DX003 (ip), vehicle: Klucel (hydroxypropylcellulose) (HPC) 106 % of control | [15] 90 % of control | dose: 400.0 mg/kg/injection, schedule: Q04DX003 (ip), vehicle: Klucel (hydroxypropylcellulose) (HPC) 97 % of control

N=C(N)N=Nc1cc(O)c(NN=C(N)N)cc1O
inactive: dose: 7.5 mg/kg/injection, schedule: Q01DX Z (oral), vehicle: saline 95 % of control | dose: 15.0 mg/kg/injection, schedule: Q01DX Z (ip), vehicle: saline 98 % of control | dose: 15.0 mg/kg/injection, schedule: Q01DX Z (oral), vehicle: saline 96 % of control | dose: 30.0 mg/kg/injection, schedule: Q01DX Z (oral), vehicle: saline 98 % of control

Cc1cnccc1N=Nc1ccc(N(C)C)cc1
inactive: [16] 104 % of control | [17] 104 % of control | [18] 101 % of control

CC1CNC(=S)N1 (configuration not stated)
inactive: [5] 106 % of control | [6] 103 % of control | [12] 106 % of control

c1ccc2cc3sccc3cc2c1
inactive: [13] 96 % of control | [14] 95 % of control | [15] 93 % of control

CCCCCC(C(C)=O)(C1=NC(C)(C)CC(C)O1)c1ccccc1 (configuration not stated)
inactive: dose: 100.0 mg/kg/injection, schedule: Q04DX003 (ip), vehicle: saline sonified 103 % of control | dose: 200.0 mg/kg/injection, schedule: Q04DX003 (ip), vehicle: saline sonified 120 % of control | dose: 400.0 mg/kg/injection, schedule: Q04DX003 (ip), vehicle: saline sonified 111 % of control

Cc1cn([C@@H]2C[C@H](CO)[C@@H](O)C2)c(=O)[nH]c1=O
inactive: [1] 105 % of control | [2] 110 % of control | [3] 107 % of control

O=C(Nc1ccccc1Cl)Oc1ccc(C2CCCCC2)cc1
inactive: [5] 103 % of control | [6] 98 % of control | [12] 98 % of control

CCCCCC(C)(O)CC (configuration not stated)
inactive: [1] 93 % of control | [2] 102 % of control | [3] 96 % of control

CCOC(=O)C(N)=S
inactive: [7] 98 % of control | [8] 96 % of control | [9] 88 % of control

CN(N=O)C(=O)NCc1c[nH]c(=O)[nH]c1=O
inactive: dose: 6.0 mg/kg/injection, schedule: Q01DX Z (ip), vehicle: carboxymethylcellulose (CMC) 106 % of control | dose: 12.0 mg/kg/injection, schedule: Q01DX Z (ip), vehicle: carboxymethylcellulose (CMC) 101 % of control | dose: 25.0 mg/kg/injection, schedule: Q01DX Z (ip), vehicle: carboxymethylcellulose (CMC) 100 % of control | dose: 50.0 mg/kg/injection, schedule: Q01DX Z (ip), vehicle: carboxymethylcellulose (CMC) 121 % of control

COP(N)(=S)OC
inactive: dose: 75.0 mg/kg/injection, schedule: Q01DX001 (ip), vehicle: saline 101 % of control | dose: 150.0 mg/kg/injection, schedule: Q01DX001 (ip), vehicle: saline 98 % of control | dose: 300.0 mg/kg/injection, schedule: Q01DX001 (ip), vehicle: saline 104 % of control

CC(C)C12OC1CC1C3(C)CCCC(C)(C(=O)O)C3CCC13OC32 (configuration not stated)
inactive: [19] 98 % of control | [16] 90 % of control | [20] 96 % of control | [17] 90 % of control | [21] 93 % of control | [18] 90 % of control

O=[N+]([O-])c1ccc(N/N=C(\c2ccccc2)C2CCC2)c([N+](=O)[O-])c1
inactive: [4] 99 % of control | [5] 96 % of control | [6] 96 % of control

O=C(Oc1ccc([N+](=O)[O-])cc1)c1ccccc1S(=O)OCCc1ccccc1 (configuration not stated)
inactive: dose: 100.0 mg/kg/injection, schedule: Q01DX001 (ip), vehicle: other 92 % of control | dose: 200.0 mg/kg/injection, schedule: Q01DX001 (ip), vehicle: other 95 % of control

CC1(C)N=C(N)N=C(N)N1c1ccc(CC(=O)Nc2cccc(S(=O)(=O)F)c2)cc1
inactive: dose: 6.25 mg/kg/injection, schedule: Q#A X018 (ip), vehicle: saline 105 % of control | dose: 12.5 mg/kg/injection, schedule: Q01DX009 (ip), vehicle: saline 103 % of control | dose: 12.5 mg/kg/injection, schedule: Q#A X018 (ip), vehicle: saline 111 % of control | [10] 111 % of control | [11] 117 % of control and 118 % of control | dose: 50.0 mg/kg/injection, schedule: Q#A X018 (ip), vehicle: saline 118 % of control | [1] 100 % of control | [2] 102 % of control

F[Si](c1cccc2ccccc12)(c1cccc2ccccc12)c1cccc2ccccc12
inactive: [19] 93 % of control | [16] 92 % of control | [20] 87 % of control | [17] 90 % of control | [21] 103 % of control | [18] 97 % of control

CCOC(Nc1ccc(Cl)cc1Cl)C(=O)c1ccccc1 (configuration not stated)
inactive: [1] 97 % of control | [2] 101 % of control | [3] 101 % of control
